Tested on: ALK-positive or ROS1-positive advanced non-small cell lung cancer
Assay: Phase I clinical trial, dose escalation and expansion phases: efficacy (RECIST 1.1)
Type: in vivo, human
Conditions: systemic
Experimental: The anti-tumor efficacy is evaluated according to RECIST version 1.1. For patients initially evaluated as having a complete response (CR) or partial response (PR), efficacy should be confirmed at least 4 weeks later. In the patients with asymptomatic central nervous system (CNS) metastases, in addition to evaluating 5 extracranial target lesions, up to 5 intracranial target lesions will also be evaluated. The specific indicators are as follows:
"CR" is defined as the disappearance of all target lesions, and the diameters of the short axis of all the pathological lymph nodes (whether target or non-target lymph nodes) must be reduced to 10 mm or less.
"PR" is defined as a reduction of at least 30% in the total diameter of the target lesions, with the total diameter of the baseline as a reference value.
"PD" is defined as an increase of at least 20% in the total diameter of the target lesions, using the minimum total diameter in the study as a reference value (this value may include the total diameter of the baseline). In addition, the absolute value of the total diameter must increase by at least 5 mm (the appearance of one or more new lesions is also considered as progressive disease).
"SD" is defined as a state in which the reduction in target lesions is insufficient to achieve partial response and the increase is insufficient to achieve progressive disease.
"ORR" includes CR and PR, and is defined as the proportion of patients who achieve complete response or partial response.
"IC-ORR" includes CR or PR for confirmed intracranial lesions, and is defined as the proportion of the patients with complete response or partial response of intracranial lesions among the patients with intracranial lesions.
"DCR" is defined as the proportion of the patients who achieve response (PR+CR) and stable disease (SD) after a treatment.
"IC-DCR" is defined as the proportion of the patients who achieve intracranial response (PR+CR), intracranial stable disease (SD), and […] after a treatment among the patients with intracranial lesions.
"DOR" is defined as the time from the first assessment of CR or PR to progressive disease or death, and is only applicable to the patients who achieve response.
"IC-DOR" is defined as the time from the first assessment of intracranial CR or intracranial PR to progressive disease or death, and is only applicable to the patients whose intracranial lesions achieve response.
"TTR" is defined as the time from patient enrollment (first dose of investigational drug) to tumor response (CR/PR), based on the patients with objective response.
"IC-TTR" is defined as the time from patient enrollment (first dose of investigational drug) to intracranial tumor response (IC-CR/PR), based on the patients with intracranial objective response.
Approximately eight dose groups in total were set in the dose escalation phase, which were 5 (the starting dose), 10, 20, 40, 60, 80, 100, and 125 mg, respectively. Subjects in all the dose groups received a single dose on day 1 (D1), and the blood samples were collected for pharmacokinetic (PK) assay and tolerability observation. If no grade 2 or a higher-level adverse event related to the investigational drug occurred during the single-dose period (5 to 7 days) (if such events occurred, dose adjustments would be made based on the toxicity according to the protocol), the subject entered the multiple-dose period (i.e., treatment period) 5 to 7 days later (7 days after the first administration in the first dose group (i.e., starting the multiple-dose treatment on day 8), and the intervals for the subsequent dose groups were determined based on the obtained tolerability and PK data). […]

For `[2H]C([2H])([2H])n1nc2c(c1C#N)-c1cnc(N)c(c1)O[C@H](C)c1cc(F)ccc1C(=O)N(C)C2` [compound A, (10R)-7-amino-12-fluoro-2-(methyl-d3)-10,16-dimethyl-15-oxo-10,15,16,17-tetrahydro-2H-8,4-(metheno)pyrazolo[4,3-h][2,5,11]benzoxadiazacyclotetradecine-3-carbonitrile], the “DCR (95% CI)” value (5mg (N=1)) was 1 (100) (2.5, 100.0) n (%), the “BOR CR” value (10mg (N=1)) was 0 n (%) and the “BOR NE” value (10mg (N=1)) was 0 n (%). The “BOR PD” value (10mg (N=1)) was 0 n (%), the “BOR PR” value (10mg (N=1)) was 0 n (%) and the “BOR SD” value (10mg (N=1)) was 1 (100) n (%). For the same compound, the “Confirmed ORR (95% CI)” value (10mg (N=1)) was 0 (0.0, 97.5) n (%), the “DCR (95% CI)” value (10mg (N=1)) was 1 (100) (2.5, 100.0) n (%) and the “BOR CR” value (20mg (N=1)) was 0 n (%). The “BOR NE” value (20mg (N=1)) was 0 n (%), the “BOR PD” value (20mg (N=1)) was 0 n (%) and the “BOR PR” value (20mg (N=1)) was 1 (100) n (%). For the same compound, the “BOR SD” value (20mg (N=1)) was 0 n (%), the “Confirmed ORR (95% CI)” value (20mg (N=1)) was 1 (100) (2.5, 100.0) n (%) and the “DCR (95% CI)” value (20mg (N=1)) was 1 (100) (2.5, 100.0) n (%). For the same compound, the “Median DOR (95% CI)” value (20mg (N=1)) was 6.93 (-, -) months, the “Median TTR (range)” value (20mg (N=1)) was 1.35 (1.35, 1.35) months and the “BOR CR” value (40mg (N=10)) was 0 n (%). The “BOR NE” value (40mg (N=10)) was 2 (20.0) n (%), the “BOR PD” value (40mg (N=10)) was 2 (20.0) n (%) and the “BOR PR” value (40mg (N=10)) was 1 (10.0) n (%). The “BOR SD” value (40mg (N=10)) was 5 (50.0) n (%), the “Confirmed ORR (95% CI)” value (40mg (N=10)) was 1 (10.0) (0.3, 44.5) n (%) and the “DCR (95% CI)” value (40mg (N=10)) was 6 (60.0) (26.2, 87.8) n (%). For the same compound, the “Median TTR (range)” value (40mg (N=10)) was 2.73 (2.73, 2.73) months, the “BOR CR” value (60mg (N=12)) was 0 n (%) and the “BOR NE” value (60mg (N=12)) was 0 n (%). The “BOR PD” value (60mg (N=12)) was 1 (8.3) n (%), the “BOR PR” value (60mg (N=12)) was 6 (50.0) n (%) and the “BOR SD” value (60mg (N=12)) was 5 (41.7) n (%). For the same compound, the “Confirmed ORR (95% CI)” value (60mg (N=12)) was 6 (50.0) (21.1, 78.9) n (%), the “DCR (95% CI)” value (60mg (N=12)) was 11 (91.7) (61.5, 99.8) n (%) and the “Median DOR (95% CI)” value (60mg (N=12)) was 12.45 (2.79, -) months. For the same compound, the “Median TTR (range)” value (60mg (N=12)) was 1.35 (1.35, 6.90) months, the “BOR CR” value (80mg (N=11)) was 0 n (%) and the “BOR NE” value (80mg (N=11)) was 1 (9.1) n (%). For the same compound, the “BOR PD” value (80mg (N=11)) was 1 (9.1) n (%), the “BOR PR” value (80mg (N=11)) was 4 (36.4) n (%) and the “BOR SD” value (80mg (N=11)) was 5 (45.5) n (%). The “Confirmed ORR (95% CI)” value (80mg (N=11)) was 4 (36.4) (10.9, 69.2) n (%), the “DCR (95% CI)” value (80mg (N=11)) was 9 (81.8) (48.2, 97.7) n (%) and the “Median DOR (95% CI)” value (80mg (N=11)) was 12.48 (7.98, -) months. The “Median TTR (range)” value (80mg (N=11)) was 1.45 (1.35, 13.96) months, the “BOR CR” value (100mg (N=3)) was 0 n (%) and the “BOR NE” value (100mg (N=3)) was 0 n (%). For the same compound, the “BOR PD” value (100mg (N=3)) was 0 n (%), the “BOR PR” value (100mg (N=3)) was 2 (66.7) n (%) and the “BOR SD” value (100mg (N=3)) was 1 (33.3) n (%). For the same compound, the “Confirmed ORR (95% CI)” value (100mg (N=3)) was 2 (66.7) (9.4, 99.2) n (%), the “DCR (95% CI)” value (100mg (N=3)) was 3 (100) (29.2, 100.0) n (%) and the “Median DOR (95% CI)” value (100mg (N=3)) was 5.57 (4.17, -) months. For the same compound, the “Median TTR (range)” value (100mg (N=3)) was 2.05 (1.35, 2.76) months, the “BOR CR” value (125mg (N=3)) was 0 n (%) and the “BOR NE” value (125mg (N=3)) was 0 n (%). For the same compound, the “BOR PD” value (125mg (N=3)) was 1 (33.3) n (%), the “BOR PR” value (125mg (N=3)) was 1 (33.3) n (%) and the “BOR SD” value (125mg (N=3)) was 1 (33.3) n (%). For the same compound, the “Confirmed ORR (95% CI)” value (125mg (N=3)) was 1 (33.3) (0.8, 90.6) n (%), the “DCR (95% CI)” value (125mg (N=3)) was 2 (66.7) (9.4, 99.2) n (%) and the “Median DOR (95% CI)” value (125mg (N=3)) was 9.53 (-, -) months. The “Median TTR (range)” value (125mg (N=3)) was 1.38 (1.38, 1.38) months.
